Experimental data taken from article PMC9617852, “In vitro and in vivo assessment of the antioxidant potential of isoxazole derivatives” (Scientific Reports, 2022).
In brackets after ≈: the same amount, converted by molar mass. Like-named read-outs stand apart in the source and are kept apart here. Marks after values point to notes of the source that are not given here.

What was measured:
[1] = system: total antioxidant capacity (TAC) in the blood of mice; experiment: In vivo total antioxidant capacity (TAC) in mice, Abcam ab65329 kit; details: for TAC (Trolox equivalents): plasma
Method: For this purpose, the TAC was determined using a commercially available assay kit (Abcam ab65329), in four groups of mice: 2a treated (5 mg/kg over 6 days, n = 5), 2a treated (10 mg/kg over 6 days, n = 5), quercetin treated (positive control; 10 mg/kg over 6 days, n = 5), and vehicle-treated (negative control; n = 5). All mice were sacrificed seven days after the treatment (or the first administration of the vehicle).
The absorbance values of the used kit were plotted against a serial concentration of Trolox standards in the concentration range of (4–20 nM). […] The generated regression line equation was utilized to calculate the Trolox equivalent total antioxidant activity of the injected compound and positive quercetin control of the experimental mice. The average results of the total antioxidant activity of ten replicates of plasma samples were reported. […] The summary of the results is shown in (Fig. 6).
Twenty mice were divided into four groups randomly, with five mice in each. The first group was administered with our novel compound 2a (5 mg/kg), the second group with the same compound (10 mg/kg), the third group with Quercetin (10 mg/kg) as a positive control, and the fourth group with normal saline (20%) and propylene glycol 80% as a negative control group.
To test the TAC of the novel compound, four groups of mice were injected intraperitoneal (i.p.) and employed with vehicle (80% polyethylene glycol (PG) and 20% normal saline (NS) for 6 days. The first and second groups were injected with 5 and 10 mg/kg/day of 2a compound dissolved in the same vehicle, respectively. The third group was injected with a known antioxidant agent positive control (Quercetin), with 10 mg/kg/day, and the last group was the negative control group (80% polyethylene glycol (PG) and 20% Normal saline (NS). All mice were anesthetized with ketamine (60 mg/kg) and xylazine (5 mg/kg) and sacrificed 24 h after the final injection. Then, the mouse blood sample was collected and centrifuged to collect serum. For long-term stability, serum was frozen at − 20 °C[27],[28].
All mice were sacrificed after seven days of treatment by placing each mouse in a plexiglass chamber with 5% of isoflurane anesthetic drug, for 5 min, and then when the mouse was fully sedated, they were sacrificed by rapid decapitation. Trunk blood was collected in EDTA-coated tubes for use in the kit assay[29],[30].
Using DPPH assay that basis on measures the total antioxidant capacity (TAC) of compounds that can transfer hydrogen atoms. […] Antioxidant compounds, which can transfer an electron to DMPD• + , cause a discoloration of the solution. […] The reduced Cu + ion is chelated with a colorimetric probe giving a broad absorbance peak around 570 nm, proportional to the total antioxidant capacity. […]

[2] = target: T1, porcine pancreatic α-amylase (Sus scrofa, UniProt P00690); experiment: α-Amylase inhibitory assay; assay type: biochemical
T1 construct: purchased Alfa Aesar, Sigma-Aldrich, and Frutarom (UK)
T1 sequence (P00690 16-511): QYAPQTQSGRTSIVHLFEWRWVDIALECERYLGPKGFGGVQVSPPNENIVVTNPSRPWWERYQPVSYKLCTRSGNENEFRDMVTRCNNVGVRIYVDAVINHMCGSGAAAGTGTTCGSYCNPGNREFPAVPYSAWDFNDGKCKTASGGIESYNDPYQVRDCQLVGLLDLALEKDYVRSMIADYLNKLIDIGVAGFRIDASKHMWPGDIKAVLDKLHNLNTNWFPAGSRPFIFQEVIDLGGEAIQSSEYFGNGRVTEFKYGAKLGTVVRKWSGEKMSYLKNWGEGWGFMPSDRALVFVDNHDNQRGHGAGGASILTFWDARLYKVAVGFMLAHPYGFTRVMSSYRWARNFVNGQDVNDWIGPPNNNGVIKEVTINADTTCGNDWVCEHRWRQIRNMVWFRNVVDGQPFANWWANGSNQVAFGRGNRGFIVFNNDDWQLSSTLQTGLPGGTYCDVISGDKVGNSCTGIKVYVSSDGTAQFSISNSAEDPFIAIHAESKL
Method: A 5 mg of each fraction was dissolved in a few milliliters of 10% DMSO, and then further dissolved up to 100 ml in 0.02 M Na2HPO4/NaH2PO4, 0.006 M NaCl, pH 6.9 to give finally stock solutions with concentrations of 1000 μg/ml. From these, the following dilutions were prepared of 10, 50, 70, 100, and 500 μg/ml, using 10% DMSO as the diluent. A 0.2 ml volume of 2 units/ml porcine pancreatic α-amylase was mixed with 0.2 ml compounds dilution and was incubated for 10 min at 30 °C. After incubation, 0.2 ml of a freshly prepared 1% starch solution in water was added, and the tubes were then incubated for at least three more minutes. At this point, the reaction was stopped by the addition of 0.2 ml 3,5-dinitro salicylic acid (DNSA) color reagent and was diluted with 5 ml of distilled water, before being heated at 90 °C for 10 min in a water bath. The mixture was then cooled to room temperature, and the absorbance was measured at 540 nm. The blank control was prepared using the same quantities described above, but replacing the compound solution with 0.2 ml buffer.

[3] = parameters: method as in PMID 33763478; details: similar isoxazole series, earlier report; cited from earlier work
[4] = DPPH free radical scavenging assay (in vitro antioxidant activity); details: DPPH in methanol, 30 min in the dark at 25 °C, absorbance 517 nm
Text: To determine the antioxidant activities, the 2,2-Diphenyl-1-picrylhydrazyl (DPPH) was used, which is considered one of the most widely used methods for measuring the in vitro antioxidant activity of various chemical compounds. This colorimetric method is accurate, easy to perform, and economical, providing a screening of the general activity of the antioxidants and is based on a stable and synthetic radical, DPPH[15].
When DPPH reacts with an antioxidant compound, its free radical property is lost and its color changes from violet to yellow. The decrease in absorbance at 517 nm induced by antioxidants determines the reduction ability of DPPH.
The free DPPH radical scavenging assay was used to measure the antioxidant activity of the isoxazole derivatives. A 1000 μg/ml stock solution of each compound was prepared in methanol. In addition, a 1000 μg/ml solution of Trolox was also prepared (the reference standard). […] Optical densities were then measured with a spectrophotometer at a wavelength of 517 nm. The following equation was used to calculate % DPPH inhibition for each compound, with Trolox as the standard compound: DPPHinhibition%=AB-Ats/AB×100% where, AB is the recorded absorbance of the blank solution, and Ats is the recorded absorbance of the tested sample solution[25].

Water solubility = assay type: physicochemical; details: can be dissolved with propylene glycol
[5] = target: T2, porcine pancreatic lipase (Sus scrofa, UniProt P00591); experiment: Porcine pancreatic lipase inhibition assay; assay type: biochemical; details: substrate p-nitrophenyl butyrate, 37 °C, 410 nm; highest concentration 400 µg/ml
T2 construct: purchased Alfa Aesar, Sigma-Aldrich, and Frutarom (UK)
T2 sequence (P00591 1-450): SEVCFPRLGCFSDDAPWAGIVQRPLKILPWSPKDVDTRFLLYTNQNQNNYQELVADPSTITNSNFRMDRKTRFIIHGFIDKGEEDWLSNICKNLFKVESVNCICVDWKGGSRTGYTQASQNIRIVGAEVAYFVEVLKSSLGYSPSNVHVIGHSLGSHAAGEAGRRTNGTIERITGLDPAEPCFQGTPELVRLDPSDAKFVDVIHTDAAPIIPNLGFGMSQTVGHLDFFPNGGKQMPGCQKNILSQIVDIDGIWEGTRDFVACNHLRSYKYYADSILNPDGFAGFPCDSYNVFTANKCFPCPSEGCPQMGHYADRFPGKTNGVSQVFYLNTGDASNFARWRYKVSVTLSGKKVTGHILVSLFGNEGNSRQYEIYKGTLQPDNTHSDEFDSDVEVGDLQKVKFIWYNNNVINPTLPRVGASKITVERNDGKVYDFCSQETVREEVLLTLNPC
Method: Stock solutions of 500 µg/ml were made from each compound in 10% DMSO. From these, a dilution series of five concentrations of 50, 100, 200, 300, and 400 μg/ml were made. A 1 mg/ml stock solution of porcine pancreatic lipase in Tris–HCl buffer was prepared freshly just before use. The substrate, p-nitrophenyl butyrate (PNPB) was prepared by dissolving 20.9 mg in 2 ml acetonitrile. For each working solution, 0.1 ml porcine pancreatic lipase was mixed with 0.2 ml of compound solution from each member of the dilution series. Tris–HCl was added to make the final volume of the working solutions 1 ml, and they were incubated at 37 °C for 15 min. After incubation, 0.1 ml p-nitrophenyl butyrate solution was added to each test tube. The mixture was then incubated for a further 30 min at 37 °C. Pancreatic lipase activity was determined by measuring the hydrolysis of PNPB into p-nitrophenolate at 410 nm, using a UV spectrophotometer. […] Percentage lipase inhibition by compound dilution was calculated with the following equation: Lipaseinhibition%=AB-Ats/AB×100% where, AB is the recorded absorbance of the blank solution, and Ats is the recorded absorbance of the tested sample solution[31].

Hep3B = system: Hep3B; parameters: method as in doi:10.1515/chem-2021-0078; details: Hep3B cancer cell line; cited from earlier work

Structure (SMILES): O=c1c(O)c(-c2ccc(O)c(O)c2)oc2cc(O)cc(O)c12 [Quercetin, reference compound]
- TAC (Trolox equivalents) ([1]; 10 mg/kg i.p. over 6 days): 221.0 nmol L–1

Structure (SMILES): C[C@H]1O[C@H](O[C@H]2[C@H](O)[C@@H](O)[C@@H](O[C@H]3[C@H](O)[C@@H](O)C(O)O[C@@H]3CO)O[C@@H]2CO)[C@H](O)[C@@H](O)[C@@H]1N[C@H]1C=C(CO)[C@@H](O)[C@H](O)[C@H]1O (stereo partly drawn) [Acarbose, reference compound]
- inhibition at 500 µg/mL ([2]; read-out: percentage of inhibition of α-amylase): 72.5%

Structure (SMILES): Cc1onc(-c2ccccc2Cl)c1C(=O)Nc1ccc(C(C)(C)C)cc1 [N-(4-(tert-butyl)phenyl)-3-(2-chlorophenyl)-5-methylisoxazole-4-carboxamide]
- IC50 DPPH [3]: 7.8 µg/mL (≈ 21.1 µM)

Structure (SMILES): Cc1c(C)c2c(c(C)c1O)CCC(C)(C(=O)O)O2 (stereo not drawn) [Trolox, reference compound]
- IC50 DPPH [4]: 3.10 ± 0.92^a µg/ml

Structure (SMILES): Cc1onc(-c2ccc(F)cc2)c1C(=O)Nc1ccc(C(C)(C)C)cc1 [2a, N-(4-(tert-butyl)phenyl)-3-(4-fluorophenyl)-5-methylisoxazole-4-carboxamide]
- water solubility (Water solubility): low water solubility
- IC50 DPPH [4]: 0.45 ± 0.21 µg/mL (≈ 1.28 µM)
- TAC (Trolox equivalents) ([1]; 5 mg/kg i.p. over 6 days): 640.2 nmol L–1
- TAC (Trolox equivalents) ([1]; 10 mg/kg i.p. over 6 days): 682.9 nmol L–1
- TAC relative to mice treated with the positive control Quercetin ([1]; i.p.): two folds greater
- IC50 [5]: > 1.14 mM
- IC50 against Hep3B (Hep3B): 9.58 µg/mL (≈ 27.2 µM)
- IC50 ([2]; starch substrate, DNSA, 540 nm, highest concentration 500 µg/ml): > 1.42 mM
